In ChEMBL document CHEMBL1137538, “Natural triterpenoids from Cecropia lyratiloba are cytotoxic to both sensitive and multidrug resistant leukemia cell lines” (Bioorg Med Chem, 2007):

Key:
K562 [1] = assay: Cytotoxicity against human K562 cells assessed as cell viability after 48 hrs by MTT assay; format: functional, cell-based; details: K562, 48 h
[2] = Cytotoxicity against human multidrug resistant Lucena1 cells assessed as cell viability after 48 hrs by MTT assay; format: functional, cell-based; details: Lucena 1, 48 h
K562 [3] = assay: Induction of apoptosis in human K562 cells assessed as DNA fragmentation at 50 ug/mL by FACS analysis; format: functional
K562 [4] = assay: Induction of apoptosis in human K562 cells assessed as DNA fragmentation at 10 ug/mL by FACS analysis; format: functional
K562 [5] = assay: Activation of caspase 3 in human K562 cells at 50 ug/mL after 4 hrs by flow cytometry; format: functional
K562 [6] = assay: Activation of caspase 3 in human K562 cells at 50 ug/mL after 12 hrs by flow cytometry; format: functional
Caco-2 = assay: Cytotoxicity against human Caco-2 cells assessed as cell viability; format: functional, cell-based
K562 [7] = assay: Activation of caspase 3 in human K562 cells at 50 ug/mL after 24 hrs by flow cytometry; format: functional
[8] = Induction of apoptosis in human multidrug resistant Lucena1 cells assessed as DNA fragmentation at 10 ug/mL by FACS analysis; format: functional
[9] = Induction of apoptosis in human multidrug resistant Lucena1 cells assessed as DNA fragmentation at 50 ug/mL by FACS analysis; format: functional
[10] = Induction of apoptosis in human multidrug resistant Lucena1 cells assessed as DNA fragmentation at 25 ug/mL by FACS analysis; format: functional
K562 [11] = assay: Activation of caspase 3 in human K562 cells at 50 ug/mL after 8 hrs by flow cytometry; format: functional
HEp-2 = assay: Cytotoxicity against human HEp2 cells assessed as cell viability; format: functional, cell-based
K562 [12] = assay: Induction of apoptosis in human K562 cells assessed as DNA fragmentation at 25 ug/mL by FACS analysis; format: functional
A549 = assay: Cytotoxicity against human A549 cells assessed as cell viability; format: functional, cell-based

For `CC(=O)O[C@H]1[C@H](O)C[C@]2(C)[C@H]3CC=C4[C@H]5[C@](C(=O)O)(CC[C@@H](C)[C@@]5(C)O)CC[C@@]4(C)[C@]3(C)CC[C@H]2C1(C)C`, the IC50 (K562 [1]) was 56.6 µM and the IC50 [2] was 72.9 µM.

Compound `CC(=O)O[C@@H]1C[C@]2(C)[C@H]3CC=C4[C@H]5[C@](C(=O)O)(CC[C@@H](C)[C@@]5(C)O)CC[C@@]4(C)[C@]3(C)CC[C@H]2C(C)(C)[C@H]1O` has an IC50 (K562 [1]) of 38.4 µM and an IC50 [2] of 41.4 µM.

In the case of `C[C@@H]1CC[C@]2(C(=O)O)CC[C@]3(C)C(=CC[C@@H]4[C@@]5(C)C[C@@H](O)[C@@H](O)C(C)(C)[C@@H]5CC[C@]43C)[C@@H]2[C@]1(C)O` [EUSCAPHIC ACID], the Activity (K562 [3]) is reported as 62.93%, the IC50 (K562 [1]) is reported as 76.7 µM and the Activity (K562 [4]) is reported as 13.58%. It also gave an Activity (K562 [5]) of 8.04%, an Activity (K562 [6]) of 18.69% and an IC50 (Caco-2) of 104 µM. The Activity (K562 [7]) was 36.33%, the Activity [8] was 10.48% and the Activity [9] was 63.57%. For the same compound, the Activity [10] was 30.87%, the Activity (K562 [11]) was 13.87% and the IC50 (HEp-2) was 106 µM. For the same compound, the Activity (K562 [12]) was 27.75%, the IC50 [2] was 83.8 µM and the IC50 (A549) was 95.6 µM.

Work on `C[C@@H]1CC[C@]2(C(=O)O)CC[C@]3(C)C(=CC[C@@H]4[C@@]5(C)C[C@@H](O)[C@H](O)C(C)(C)[C@@H]5CC[C@]43C)[C@@H]2[C@]1(C)O` [TOMENTIC ACID] yielded an IC50 (K562 [1]) of 89.4 µM and an IC50 [2] of 80.2 µM.

With `CC[C@]1(O)C[C@H]2CN(CCc3c([nH]c4ccccc34)[C@@](C(=O)OC)(c3cc4c(cc3OC)N(C=O)[C@H]3[C@@](O)(C(=O)OC)[C@H](OC(C)=O)[C@]5(CC)C=CCN6CC[C@]43[C@@H]65)C2)C1` [VINCRISTINE] the IC50 (K562 [1]) was 0.006 µM and the IC50 [2] was greater than 0.1 µM.
